According to patent publication US20160075689A1, “POLYMERASE, ENDONUCLEASE, AND HELICASE INHIBITORS AND METHODS OF USING THEREOF” (THE BOARD OF TRUSTEES OF THE UNIVERSITY OF ARKANSAS, priority 2013, published 2016):

Columns and labels:
Dpo1 = biological target: T1, Dpo1 (Saccharolobus solfataricus, UniProt P26811); test: Fluorescence-based polymerase assay, IC50; assay type: biochemical, Sulfolobus solfataricus
T1 construct: made in house
Protocol: (§1) In order to determine the IC50 value for each enzyme, the fluorescence-based polymerase assay was repeated with increasing concentrations of inhibitor. The conditions varied slightly for each enzyme. With the exception of hpol ι, all IC50 experiments were performed in 50 mM Tris HCl (pH 8.0) buffer containing 1 mM MgCl2, 0.1 mM dTTP, 40 mM NaCl, 2 mM DTT, 0.01% (v/v) Tween-20 and 10% (v/v) DMSO. For experiments with hpol ι, KCl was substituted for NaCl and 0.25 mM MnCl2 was substituted for MgCl2. The concentration of inhibitor was 0, 1, 5, 10, 20, 30, 50, 75 and 100 μM. The enzyme and DNA concentrations were as follows: 10 nM hpol η, 50 nM DNA; 3 nM hpol κ, 60 nM DNA; 50 nM hpol ι, 50 nM DNA; 10 nM Dpo4, 50 nM DNA; 100 nM Dpo1, 50 nM DNA; 50 nM hpol β, 50 nM DNA; 50 nM HIV-1 RT, 50 nM DNA. The percent activity was plotted as a function of the log of inhibitor concentration and fit to a four-parameter logistic model (equation 1) using Prism software (Graph Pad, San Diego, Calif.): […]

hpol η [1] = biological target: T2, hpol η (Homo sapiens, UniProt Q9Y253); test: Fluorescence-based DNA polymerase strand-displacement assay; assay type: biochemical
T2 construct: human DNA polymerases η (amino acids 1-437); 6x-histidine (N, cleaved yes); GST (N, cleaved yes); made in house; host or cells: Escherichia coli BL21 (DE3)
T2 sequence (Q9Y253 1-437): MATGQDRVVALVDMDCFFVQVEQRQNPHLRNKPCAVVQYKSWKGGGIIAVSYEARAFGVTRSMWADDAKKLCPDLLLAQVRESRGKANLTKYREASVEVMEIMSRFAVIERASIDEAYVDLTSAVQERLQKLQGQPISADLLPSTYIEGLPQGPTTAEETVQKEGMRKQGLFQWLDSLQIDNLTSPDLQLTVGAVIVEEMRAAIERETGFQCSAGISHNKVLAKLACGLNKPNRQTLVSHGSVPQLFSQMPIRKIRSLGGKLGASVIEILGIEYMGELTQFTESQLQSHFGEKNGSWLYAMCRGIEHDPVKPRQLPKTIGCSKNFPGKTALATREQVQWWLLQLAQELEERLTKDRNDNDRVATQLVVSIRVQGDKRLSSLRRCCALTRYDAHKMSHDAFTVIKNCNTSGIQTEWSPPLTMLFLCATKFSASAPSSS
Text: A library of 320 compounds targeted against nucleic acid interacting proteins was screened for inhibition of polymerase activity using an assay that monitors fluorescence from a 5-carboxytetramethylrhodamine (TAMRA) labeled oligonucleotide. In order to prepare the DNA for the experiment, a TAMRA-labeled reporter (or displaced) strand (SEQ ID NO. 4: 5′-TTT TTT TTG C-TAMRA-3′) and unlabeled primer strand (SEQ ID NO. 5: 5′-TCA CCC TCGTAC GAC TCT T-3′) were annealed to a Black Hole Quencher (BHQ)-labeled template strand (SEQ ID NO. 6: 5′BHQ2-GCAAAAAAAAAA GAG TCG TAC GAG GGT GA-3′) in a solution containing 10 mM Tris (pH 8.0), 50 mM NaCl, 2 mM MgCl2, and dH2O. The template (T), primer (P) and displaced strand (D) oligonucleotides were mixed in a 1:1.5:1.5 (T:P:D) molar ratio for annealing. After an incubation period of three minutes at 95° C., the DNA was allowed to slowly cool to room temperature overnight.
The fluorescence-based assay used to screen for polymerase inhibitors measures polymerase-catalyzed displacement of a TAMRA-labeled oligonucleotide (FIG. 1). For the initial screen, the experimental setup included 50 nM hpol η), 50 nM DNA, 6 μM compound, 100 μM dTTP and 1 mM MgCl2. The reactions were performed in 50 mM Tris (pH 8.0) buffer containing 40 mM NaCl, 2 mM dithiothreitol, and 0.01% (v/v) Tween-20. The concentration of dimethyl sulfoxide (DMSO) was 3.5% (v/v) for the initial screen. The enzyme, the compounds (including a DMSO control) and dTTP were combined with the reaction buffer in individual wells of each half-plate and allowed to incubate for 5-10 minutes. The DNA substrate was subsequently added to initiate the reaction and the plate was read immediately using a BioTek SynergyH4 plate reader (λex=525 nm, λem=598 run). The final reaction volume was 200 μL. Fluorescence was monitored for 90 minutes for most reactions. The initial portion of the velocity curve was analyzed by linear regression to calculate an observed rate of product formation. For each data set, eight DMSO control experiments were averaged to obtain our measure of 100% activity. Rates of product formation in the presence of each compound were then divided by the rate of the DMSO control to produce a relative measure of polymerase activity (0 to 1, with 1 being no inhibition).
as §1

hpol η [2] = biological target: T2, hpol η; test: Steady-state kinetic analysis of DNA polymerase activity; assay type: biochemical; settings: for kcat: varying dTTP
Protocol: The steady-state kinetic parameters defining polymerase activity in the presence of inhibitor were determined using the fluorescence-based reporter assay. Hpol q activity was monitored in the presence of increasing concentrations of dTTP (1, 5, 10, 20, 30, 50, 75, and 100 μM). The measured relative fluorescence units (RFUs) were converted to a nanomolar quantity by calculating the total change in fluorescence observed between the start of the reaction and the time point at which the fluorescence change was maximal, and considering that change to be 100% of substrate converted to product. The percentage of substrate converted to product was multiplied by the concentration of dsDNA in the reaction mixture. Product formation was then plotted as a function of time, and by considering only the linear portion of each curve, velocities were calculated for each dTTP concentration. These were then plotted as a function of dTTP concentration, and fit to a hyperbola. After correcting for enzyme concentration, the steady-state kinetic parameters were obtained as described previously. The experiments were then repeated in the presence of inhibitor (10, 20 and 40 μM) to determine the effect of the small-molecule upon Michaelis-Menten kinetics.
Next, the mechanism of polymerase inhibition by ITBA-3 was investigated. The Michaelis-Menten kinetic parameters describing hpol η activity were measured in the presence of increasing concentrations of inhibitor. By varying the concentration of dTTP in the reaction mixture, the turnover number (kcat) and Michaelis constant (Km,dTTP) for hpol η were determined in the absence of inhibitor and at three concentrations of ITBA-3 (Table 3).

hpol η [3] = biological target: T2, hpol η; test: Gel-based polymerase extension assay; assay type: biochemical; settings: 6 μM, 13 μM and 60 μM
Protocol: In order to provide a second measure of enzyme inhibition, polymerase extension assays were performed. Briefly, hpol η (2 nM) was pre-incubated with FAM-13/18-mer primer-template DNA ([…]) and either DMSO (final concentration=10%) or compound (6 μM, 13 μM and 60 μM; maintaining 10% DMSO for all experiments). Polymerase catalysis was initiated by the addition of dNTP (1 mM) and MgCl2 (5 mM). The reaction was allowed to proceed at 37° C. for varying times and then terminated by the addition of 5 μL aliquots of the reaction mix to 25 μL of the quench solution (20 mM EDTA, 95% (v/v) formamide and 0.1% (w/v) bromophenol blue). The samples were separated using a 16% polyacrylamide/7M urea gel and the products analyzed using a Typhoon imager and ImageQuant™ software (GE Healthcare Life Sciences).

hpol β = biological target: T3, hpol β (Homo sapiens, UniProt P06746); test: Fluorescence-based polymerase assay, IC50; assay type: biochemical
T3 construct: purchased Enzymax (Lexington, Ky.)
Protocol: as §1

T1 sequence (P26811 whole entry): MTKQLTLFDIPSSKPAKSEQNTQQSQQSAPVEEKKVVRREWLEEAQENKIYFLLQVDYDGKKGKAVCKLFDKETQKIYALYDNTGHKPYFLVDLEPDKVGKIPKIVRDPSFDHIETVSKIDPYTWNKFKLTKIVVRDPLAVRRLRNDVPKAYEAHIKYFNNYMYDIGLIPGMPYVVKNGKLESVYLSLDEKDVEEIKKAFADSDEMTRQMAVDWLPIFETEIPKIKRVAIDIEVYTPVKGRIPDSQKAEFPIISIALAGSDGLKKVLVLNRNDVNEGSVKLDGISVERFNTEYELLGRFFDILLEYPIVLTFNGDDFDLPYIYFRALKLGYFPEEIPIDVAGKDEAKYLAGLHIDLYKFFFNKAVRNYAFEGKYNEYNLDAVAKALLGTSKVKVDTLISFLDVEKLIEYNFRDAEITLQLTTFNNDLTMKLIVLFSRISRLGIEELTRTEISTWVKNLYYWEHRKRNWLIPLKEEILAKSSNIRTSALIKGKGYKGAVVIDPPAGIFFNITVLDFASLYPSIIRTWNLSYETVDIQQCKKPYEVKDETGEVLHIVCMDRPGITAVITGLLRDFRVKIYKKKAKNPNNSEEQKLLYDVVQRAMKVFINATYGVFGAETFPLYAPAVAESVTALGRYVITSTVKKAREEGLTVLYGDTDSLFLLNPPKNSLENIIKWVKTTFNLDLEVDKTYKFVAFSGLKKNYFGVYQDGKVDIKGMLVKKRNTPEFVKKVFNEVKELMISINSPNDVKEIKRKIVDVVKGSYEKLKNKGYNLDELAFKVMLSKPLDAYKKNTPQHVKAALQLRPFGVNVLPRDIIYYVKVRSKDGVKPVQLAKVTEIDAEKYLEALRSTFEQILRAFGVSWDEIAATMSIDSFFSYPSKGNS

O=C1NC(=S)NC(=O)C1=Cc1cn(C(=O)c2ccccc2Br)c2ccc(Cl)cc12 [ITBA-3, 5-((1-(2-bromobenzoyl)-5-chloro-1H-indol-3-yl)methylene)-2-thioxodihydropyimidine-4,6-(1H,5H)-dione]
IC50 (Dpo1): ~80 µM
IC50 (hpol η [1]; 10 nM hpol η, 50 nM DNA, mean ± standard deviation of three data sets, read-out: IC50 for inhibition of hpol η): 29.8 ± 2.7 µM
polymerase activity at increasing concentrations of inhibitor, fluorescence assay (hpol η [1]; 6 μM, 13 μM and 20 μM): dose-dependent decrease in polymerase activity
hpol η percent activity relative to the control assay (hpol η [1]; 50 μM compound): dramatic improvement in activity
kcat (hpol η [2]; 10 μM inhibitor): 0.04 ± 0.0017 s⁻¹
kcat (hpol η [2]; 20 μM inhibitor): 0.05 ± 0.005 s⁻¹
kcat (hpol η [2]; 40 μM inhibitor): 0.0517 ± 0.0033 s⁻¹
mode of inhibition (hpol η [2]; with respect to dTTP): competitive
polymerase activity at increasing concentrations of inhibitor, gel-based analysis (hpol η [3]): dose-dependent decrease in polymerase activity
IC50 (hpol β): < 50 µM
